Among the data in ChEMBL document CHEMBL1150788, “In vitro susceptibility of Sporothrix schenckii to six antifungal agents determined using three different methods” (2007) are MIC, MIC50 and MIC90 values, retold here.

Assay type in all cases: functional
Test [1] concerns Aspergillus flavus. Briefly: Antifungal activity against Aspergillus flavus ATCC 204304 […] after 72 hrs by modified NCCLS M38-A method. The note with it: ATCC 204304, 72 h.
In test [2] the test system is Sporothrix schenckii. The experiment in a line: Antifungal activity against Sporothrix schenckii P24223 isolate from cutaneous-lymphatic sporotrichosis patient after 72 hrs by modified NCCLS M38-A method.
In test [3] the test system is Sporothrix schenckii. Briefly: Antifungal activity against Sporothrix schenckii MRSS4 isolate from cutaneous-lymphatic sporotrichosis patient after 72 hrs by modified NCCLS M38-A method.
Test [4] relates to Sporothrix schenckii. Briefly: Antifungal activity against Sporothrix schenckii P1621 isolate from cutaneous-lymphatic sporotrichosis patient after 72 hrs by Sensititre YeastOne method.
Test [5] has as its system Sporothrix schenckii. The experiment in a line: Antifungal activity against Sporothrix schenckii isolate from cutaneous-lymphatic sporotrichosis patient after 72 hrs by ATB Fungus 2 method.
Test [6] has as its system Sporothrix schenckii. The experiment in a line: Antifungal activity against Sporothrix schenckii MRSS4 isolate from cutaneous-lymphatic sporotrichosis patient after 72 hrs by ATB Fungus 2 method.
Test [7] has as its system Sporothrix schenckii. Briefly: Antifungal activity against Sporothrix schenckii P14954 isolate from cutaneous-lymphatic sporotrichosis patient after 72 hrs by Sensititre YeastOne method.
The subject of test [8] is Sporothrix schenckii. Briefly: Antifungal activity against Sporothrix schenckii PSCC1 isolate from cutaneous-lymphatic sporotrichosis patient after 72 hrs by modified NCCLS M38-A method.
Test [9] relates to Sporothrix schenckii. Briefly: Antifungal activity against Sporothrix schenckii P1621 isolate from cutaneous-lymphatic sporotrichosis patient after 72 hrs by modified NCCLS M38-A method.
The subject of test [10] is Aspergillus flavus. The experiment in a line: Antifungal activity against Aspergillus flavus ATCC 204304 […] after 72 hrs by Sensititre YeastOne method. Particulars: ATCC 204304, 72 h.
The test system of test [11] is Sporothrix schenckii. Briefly: Antifungal activity against Sporothrix schenckii P10012 isolate from cutaneous-lymphatic sporotrichosis patient after 72 hrs by Sensititre YeastOne method.
The subject of test [12] is Sporothrix schenckii. The experiment in a line: Antifungal activity against Sporothrix schenckii SSA29 isolate from cutaneous-lymphatic sporotrichosis patient after 72 hrs by ATB Fungus 2 method.
The subject of test [13] is Sporothrix schenckii. The experiment in a line: Antifungal activity against Sporothrix schenckii PJRC002 isolate from cutaneous-lymphatic sporotrichosis patient after 72 hrs by ATB Fungus 2 method.
Test [14] deals with Sporothrix schenckii. Briefly: Antifungal activity against Sporothrix schenckii P20825 isolate from cutaneous-lymphatic sporotrichosis patient after 72 hrs by Sensititre YeastOne method.
For test [15], the system named is Sporothrix schenckii. The experiment in a line: Antifungal activity against Sporothrix schenckii P10012 isolate from cutaneous-lymphatic sporotrichosis patient after 72 hrs by ATB Fungus 2 method.
In test [16] the test system is Sporothrix schenckii. The experiment in a line: Antifungal activity against Sporothrix schenckii PSSA81 isolate from cutaneous-lymphatic sporotrichosis patient after 72 hrs by ATB Fungus 2 method.
The test system of test [17] is Sporothrix schenckii. Briefly: Antifungal activity against Sporothrix schenckii P3287 isolate from cutaneous-lymphatic sporotrichosis patient after 72 hrs by Sensititre YeastOne method.
Test [18] relates to Sporothrix schenckii. Briefly: Antifungal activity against Sporothrix schenckii P26187 isolate from cutaneous-lymphatic sporotrichosis patient after 72 hrs by modified NCCLS M38-A method.
The subject of test [19] is Sporothrix schenckii. The experiment in a line: Antifungal activity against Sporothrix schenckii PSCC1 isolate from cutaneous-lymphatic sporotrichosis patient after 72 hrs by Sensititre YeastOne method.
In test [20] the test system is Sporothrix schenckii. Briefly: Antifungal activity against Sporothrix schenckii P3287 isolate from cutaneous-lymphatic sporotrichosis patient after 72 hrs by ATB Fungus 2 method.
The test system of test [21] is Aspergillus flavus. The experiment in a line: Antifungal activity against Aspergillus flavus ATCC 204304 […] after 72 hrs by ATB Fungus 2 method. Particulars: ATCC 204304, 72 h.
Test [22] relates to Sporothrix schenckii. Briefly: Antifungal activity against Sporothrix schenckii SSA29 isolate from cutaneous-lymphatic sporotrichosis patient after 72 hrs by modified NCCLS M38-A method.
Test [23] has as its system Pichia kudriavzevii. Briefly: Antifungal activity against Candida krusei ATCC 6258 […] after 72 hrs by modified NCCLS M38-A method. The note with it: ATCC 6258, 72 h.
Test [24] relates to Candida parapsilosis. The experiment in a line: Antifungal activity against Candida parapsilosis ATCC 22019 […] after 72 hrs by Sensititre YeastOne method. The note with it: Lodderomyces parapsilosis, ATCC 22019, 72 h.

Converted amounts (≈) assume the structure as drawn.

With `C[C@@H]1[C@H](O)[C@@H](C)/C=C/C=C/C=C/C=C/C=C/C=C/C=C/[C@H](O[C@@H]2O[C@H](C)[C@@H](O)[C@H](N)[C@@H]2O)C[C@@H]2O[C@](O)(C[C@@H](O)C[C@@H](O)[C@H](O)CC[C@@H](O)C[C@@H](O)CC(=O)O[C@H]1C)C[C@H](O)[C@H]2C(=O)O` [AMPHOTERICIN B], the MIC in test [1] amounted to 4 µg/mL (≈ 4.33 µM); in [2] it was 0.5 µg/mL (≈ 0.541 µM); in test [3], 0.06 µg/mL (≈ 0.0649 µM); in test [4], 0.5 µg/mL (≈ 0.541 µM); in test [6], 4 µg/mL (≈ 4.33 µM); in test [7] it was 1 µg/mL (≈ 1.08 µM). The MIC in [8] was 0.25 µg/mL (≈ 0.271 µM); in test [9], 0.125 µg/mL (≈ 0.135 µM); in test [10], 0.5 µg/mL (≈ 0.541 µM); in [11], 0.25 µg/mL (≈ 0.271 µM); in test [12], 2 µg/mL (≈ 2.16 µM); in test [13], 1 µg/mL (≈ 1.08 µM). Also, the MIC is 1 µg/mL (≈ 1.08 µM) in [14]; at most 0.5 µg/mL in test [15]; 4 µg/mL (≈ 4.33 µM) in test [16]; 0.5 µg/mL (≈ 0.541 µM) in test [17]; over 16 µg/mL in [18]; 0.25 µg/mL (≈ 0.271 µM) in test [19]. Besides, the MIC in test [20] is 8 µg/mL (≈ 8.66 µM); in test [21], over 16 µg/mL; in test [22], over 16 µg/mL. For the same molecule, in test [5], the MIC50 turned out to be 1 µg/mL (≈ 1.08 µM). In test [5], the MIC90 was 4 µg/mL (≈ 4.33 µM).
On to `OC(Cn1cncn1)(Cn1cncn1)c1ccc(F)cc1F` [FLUCONAZOLE], for which the MIC in test [2] was over 64 µg/mL; in [3], over 64 µg/mL; in test [4], over 256 µg/mL; in test [6], over 128 µg/mL; in test [7], over 256 µg/mL; in test [8], over 64 µg/mL. Moreover, the MIC is over 64 µg/mL in test [9]; over 256 µg/mL in test [11]; over 128 µg/mL in test [12]; over 256 µg/mL in [13]; 256 µg/mL (≈ 836 µM) in test [14]; over 128 µg/mL in [15]. Further, the MIC in test [23] is 128 µg/mL (≈ 418 µM); in test [16], over 128 µg/mL; in [17], over 256 µg/mL; in test [18], over 64 µg/mL; in test [19], over 256 µg/mL; in test [20], over 128 µg/mL. The MIC in test [22] was over 64 µg/mL. The molecule also displayed an MIC50 in test [5] of over 128 µg/mL. This molecule also registered an MIC90 in test [5] of over 128 µg/mL.
`CCC(C)n1ncn(-c2ccc(N3CCN(c4ccc(OCC5COC(Cn6cncn6)(c6ccc(Cl)cc6Cl)O5)cc4)CC3)cc2)c1=O` (centres undefined) [ITRACONAZOLE]: the MIC in [1] is 0.5 µg/mL (≈ 0.709 µM); in test [2], 8 µg/mL (≈ 11.3 µM); in [3], 0.5 µg/mL (≈ 0.709 µM); in test [4], 0.25 µg/mL (≈ 0.354 µM); in [6] it was 2 µg/mL (≈ 2.83 µM); in [7], 0.25 µg/mL (≈ 0.354 µM). Further, the MIC came out at 0.25 µg/mL (≈ 0.354 µM) in test [8]; 1 µg/mL (≈ 1.42 µM) in [9]; 0.25 µg/mL (≈ 0.354 µM) in [10]; 0.25 µg/mL (≈ 0.354 µM) in test [11]; 0.5 µg/mL (≈ 0.709 µM) in test [12]; 1 µg/mL (≈ 1.42 µM) in test [13]. The MIC worked out at 0.13 µg/mL (≈ 0.184 µM) in test [14]; 0.25 µg/mL (≈ 0.354 µM) in [24]; 2 µg/mL (≈ 2.83 µM) in test [15]; 1 µg/mL (≈ 1.42 µM) in [23]; 1 µg/mL (≈ 1.42 µM) in test [16]; 0.25 µg/mL (≈ 0.354 µM) in [17]. Besides, the MIC is 0.5 µg/mL (≈ 0.709 µM) in test [18]; 0.25 µg/mL (≈ 0.354 µM) in [19]; 2 µg/mL (≈ 2.83 µM) in test [20]; 0.25 µg/mL (≈ 0.354 µM) in [21]; 0.5 µg/mL (≈ 0.709 µM) in test [22]. The molecule further came in with an MIC50 in test [5] of 1 µg/mL (≈ 1.42 µM). In addition, in test [5], the MIC90 was 2 µg/mL (≈ 2.83 µM).

The term MIC denotes the lowest concentration that inhibits growth of the organism. Low values mean greater potency, high ones weaker potency. Broadly, the MIC50 is the lowest concentration that inhibits either 50% of growth or 50% of the strains tested, depending on the study. Read a high MIC50 as lower susceptibility. What is called MIC90 is the lowest concentration that inhibits either 90% of growth or 90% of the strains tested, depending on the study.
